This passage reports Activity and IC50 results from ChEMBL document CHEMBL3351287, “β-Ionone derived apoptosis inducing endoperoxides; Discovery of potent leads for anticancer agents” (Eur J Med Chem, 2014).

SMILES strings stand for the structures. Structures can show the parent of a compound that is named as a salt. Calls of active or inactive are those of the source. No cut-off for these calls is given here. Bounds are passed on as bounds.

For data set [1], the system named is A549. The experiment in a line: Induction of apoptosis in human A549 cells assessed as increase in hypodiploid sub-G1 DNA fraction at 2 uM after 24 hrs by propidium iodide-based flow cytometric analysis (reference value: 3 %). It counts as functional.
Data set [2] has as its system CHO. As to the kind of experiment: Cytotoxicity against CHO cells assessed as change in LDH at 10 to 100 uM after 48 hrs by LDH colorimetric assay relative to control. It counts as cell-based, Cricetulus griseus. The conditions noted are these: chinese hamster.
Data set [3] deals with A549. As to the kind of experiment: Induction of apoptosis in human A549 cells assessed as loss of membrane potential at 2 uM after 24 hrs using Rhodamine-123 by flow cytometric analysis (Rvb =12.1 %). It counts as functional.
The test system of data set [4] is A549. The experiment in a line: Induction of apoptosis in human A549 cells assessed as increase in intracellular ROS at 1 uM after 24 hrs using DCFH-DA by spectrofluorimetry relative to control. It counts as functional, cell-based.
For a further data set, the system named is MCF7. As to the kind of experiment: Cytotoxicity against human MCF7 cells after 48 hrs by SRB assay. It counts as functional, cell-based. The conditions noted are these: MCF7, 48 h.
The subject of data set [5] is A549. As to the kind of experiment: Cytotoxicity against human A549 cells after 48 hrs by SRB assay. It counts as functional, cell-based. The conditions noted are these: A549, 48 h.
Data set [6] has as its system A549. As to the kind of experiment: Induction of apoptosis in human A549 cells assessed as caspase 3 activation at 1 uM after 12 hrs […] by colorimetry relative to control. It counts as functional, cell-based.
In data set [7] the test system is A549. The experiment in a line: Induction of apoptosis in human A549 cells assessed as loss of membrane potential at 1 uM after 24 hrs using Rhodamine-123 by flow cytometric analysis (Rvb =12.1 %). It counts as functional.
The test system of data set [8] is A549. As to the kind of experiment: Induction of apoptosis in human A549 cells assessed as increase in hypodiploid sub-G1 DNA fraction at 10 uM after 24 hrs by propidium iodide-based flow cytometric analysis (reference value: 3 %). It counts as functional.
In data set [9] the test system is A549. As to the kind of experiment: Induction of apoptosis in human A549 cells assessed as caspase 9 activation at 1 uM after 12 hrs […] by colorimetry relative to control. It counts as functional, cell-based.
In data set [10] the test system is A549. The experiment in a line: Induction of apoptosis in human A549 cells assessed as increase in hypodiploid sub-G1 DNA fraction at 1 uM after 24 hrs by propidium iodide-based flow cytometric analysis (reference value: 3 %). It counts as functional.
Data set [11] is described as follows: Cytotoxicity against human PC3 cells after 48 hrs by SRB assay. The conditions noted are these: PC-3, 48 h. It counts as functional, cell-based.
The next data set relates to THP-1. As to the kind of experiment: Cytotoxicity against human THP1 cells after 48 hrs by SRB assay. It counts as functional, cell-based. The conditions noted are these: THP-1, 48 h.
Data set [12] has as its system CHO. As to the kind of experiment: Cytotoxicity against CHO cells assessed as change in LDH at 1 uM after 48 hrs by LDH colorimetric assay relative to control. It counts as cell-based, Cricetulus griseus. The conditions noted are these: chinese hamster.
The subject of data set [13] is CHO. As to the kind of experiment: Cytotoxicity against CHO cells assessed as change in LDH at 20 uM after 48 hrs by LDH colorimetric assay relative to control. It counts as cell-based, Cricetulus griseus. The conditions noted are these: chinese hamster.

As for `CC[C@@]1(O)C(=O)OCc2c1cc1n(c2=O)Cc2cc3ccccc3nc2-1` [CAMPTOTHECIN], the figures for the Activity with A549 [1], in the data set on CHO [2] and with A549 [3] were 49%, 126% and 96.1%, respectively.

In the case of `COc1ccc(/C=C/[C@@]23C=CC4(OO2)C(C)(C)CCC[C@]4(C)O3)c(OC)c1OC` (mixture of isomers), the result with A549 [4], in the data set with A549 [6] and with A549 [9] was Active. Besides, the IC50 in the data set on MCF7 was 18 µM; in the data set with A549 [5] it was 7 µM; in data set [11] it was over 100 µM; in the data set on THP-1, 25 µM. Also, the Activity was 91.7% in the data set with A549 [7], 74.7% in the data set on A549 [8] and 60.4% in the data set on A549 [10].

With `Cc1ccccc1/C=C/[C@@]12C=CC3(OO1)C(C)(C)CCC[C@]3(C)O2` (mixture of isomers), the outcome with A549 [4], in the data set on A549 [6] and in the data set on A549 [9] was Active. Further, the IC50 came out at 0.01 µM in the data set with MCF7, 4.3 µM with A549 [5], 20 µM in data set [11] and 4 µM in the data set on THP-1. For the same molecule, the results for the Activity in the data set with A549 [7], with A549 [8] and in the data set with A549 [10] were 50.5%, 69.8% and 67%, respectively.

Consider `CC1(C)CCC[C@]2(C)O[C@]3(/C=C/c4ccccc4Cl)C=CC12OO3` (mixture of isomers), for which the outcome in the data set on A549 [4], with A549 [6] and in the data set with A549 [9] was Active. For the same molecule, the IC50 in the data set with MCF7 worked out at 1 µM; in the data set with A549 [5], 0.9 µM; in [11] it was 13 µM; in the data set on THP-1, 3.5 µM. Also, the Activity in the data set with A549 [7] is listed as 99.7%; in the data set on A549 [8], 61%; with A549 [10], 16.9%.

Turning to `CC1(C)CCC[C@]2(C)O[C@]3(/C=C/c4ccccc4[N+](=O)[O-])C=CC12OO3` (mixture of isomers), the outcome in the data set on A549 [4], with A549 [6] and in the data set on A549 [9] was Active. Moreover, the IC50 with MCF7 was 7.7 µM; in the data set on A549 [5] it was 0.001 µM; in data set [11], over 100 µM; in the data set with THP-1, 2.8 µM. Further, the Activity is on record as 99.7% with A549 [7]; 76% with A549 [8]; 108% in the data set with CHO [12]; 135% in the data set on CHO [13]; 74.8% with A549 [10].

Regarding `COc1ccc(/C=C/[C@@]23C=CC4(OO2)C(C)(C)CCC[C@]4(C)O3)cc1OC` (mixture of isomers), the outcome in the data set on A549 [4], in the data set with A549 [6] and in the data set with A549 [9] was Active. Also, the IC50 with MCF7 was 10 µM; with A549 [5], 12 µM; in [11], over 100 µM; in the data set on THP-1 it was 11 µM. The Activity in the data set on A549 [7] worked out at 99.7%; in the data set on A549 [8], 69.8%; in the data set on A549 [10], 67.9%.

For the molecule `CC1(C)CCC[C@]2(C)O[C@]3(/C=C/c4ccccc4F)C=CC12OO3` (mixture of isomers), the result with A549 [4], with A549 [6] and with A549 [9] was Active. Further, the IC50 in the data set with MCF7 is 0.1 µM; with A549 [5], 0.003 µM; in data set [11], over 100 µM; with THP-1, 0.4 µM. For the same molecule, the values for the Activity in the data set on A549 [7], in the data set on A549 [8] and in the data set on A549 [10] were 99.8%, 74.8% and 60.7%, respectively.

For `CC1(C)CCC[C@]2(C)O[C@]3(/C=C/c4cccc5ccccc45)C=CC12OO3` (mixture of isomers), the outcome in the data set on A549 [4], with A549 [6] and in the data set with A549 [9] was Active. For the same molecule, the IC50 with MCF7 was 0.7 µM; in the data set with A549 [5], 0.02 µM; in data set [11], over 100 µM; in the data set on THP-1 it was 7.4 µM. For the same molecule, the Activity with A549 [7] was determined as 99.8%; with A549 [8], 80.3%; in the data set with A549 [10] it was 66.8%.

As for `CO[C@@]12[C@H](COC(N)=O)C3=C(C(=O)C(C)=C(N)C3=O)N1C[C@@H]1N[C@@H]12` [MITOMYCIN], the IC50 came out at 0.2 µM in the data set with MCF7, 0.04 µM with A549 [5] and 0.1 µM in the data set with THP-1.

As to `O=c1[nH]cc(F)c(=O)[nH]1` [FLUOROURACIL], inhibition with THP-1 was half-maximal at 0.04 µM (IC50).

Turning to `CC1(C)CCC[C@]2(C)O[C@]3(/C=C/c4ccc(Cl)c(Cl)c4)C=CC12OO3` (mixture of isomers), the outcome in the data set with A549 [4], in the data set with A549 [6] and with A549 [9] was Active. In addition, the IC50 in the data set with MCF7 is 4.2 µM; in the data set on A549 [5], 4.1 µM; in data set [11], 21 µM; in the data set with THP-1 it was 0.2 µM. For the same molecule, the Activity in the data set on A549 [7] is 63%; in the data set with A549 [8], 71.7%; with A549 [10], 48.2%.

Molecule `COc1cccc2c1C(=O)c1c(O)c3c(c(O)c1C2=O)C[C@@](O)(C(=O)CO)C[C@@H]3O[C@H]1C[C@H](N)[C@H](O)[C@H](C)O1` [DOXORUBICIN HYDROCHLORIDE] had an IC50 with A549 [5] of 0.1 µM.

`COc1ccccc1/C=C/[C@@]12C=CC3(OO1)C(C)(C)CCC[C@]3(C)O2` (mixture of isomers): the outcome with A549 [4], in the data set with A549 [6] and in the data set on A549 [9] was Active. The IC50 in the data set on MCF7 is 11 µM; in the data set with A549 [5] it was 6.5 µM; in data set [11], over 100 µM; in the data set on THP-1, 13 µM. Besides, the figures for the Activity in the data set with A549 [7], in the data set with A549 [8] and with A549 [10] were 99.8%, 83% and 68.2%, respectively.

For the molecule `CC1(C)CCC[C@]2(C)O[C@]3(/C=C/c4ccccc4Br)C=CC12OO3` (mixture of isomers), the outcome in the data set on A549 [4], with A549 [6] and in the data set on A549 [9] was Active. Moreover, the IC50 in the data set on MCF7 was 1.3 µM; with A549 [5], 2 µM; in [11] it was over 100 µM; in the data set on THP-1 it was 0.1 µM. The Activity in the data set on A549 [7] amounted to 99.8%; in the data set with A549 [8] it was 78.2%; with A549 [10] it was 44.9%.
